Data taken from patent US20100267561A1, “HERBICIDAL PYRIDAZINONE DERIVATIVES” (priority 2007, published 2010).

How the values were obtained:
Experiment in all cases: Test E pre-/postemergence plant response
Assay type in all cases: in vivo
[1] = tested on: surinam grass (Brachiaria decumbens); conditions: scale 0 to 100
Source text: (§1) Seeds of plant species selected from bermudagrass (Cynodon dactylon), Surinam grass (Brachiaria decumbens), large crabgrass (Digitaria sanguinalis), green foxtail (Setaria viridis), goosegrass (Eleusine indica), johnsongrass (Sorghum halepense), kochia (Kochia scoparia), pitted morningglory (Ipomoea lacunosa), purple nutsedge (Cyperus rotundus), common ragweed (Ambrosia elation), black mustard (Brassica nigra), guineagrass (Panicum maximum), dallisgrass (Paspalum dilatatum), barnyardgrass (Echinochloa crus-galli), southern (S.) sandbur (Cenchrus echinatus), common sowthistle (Sonchus oleraceous), prickly sida (Sida spinosa), Italian ryegrass (Lolium multiflorum), common purslane (Portulaca oleracea), broadleaf signalgrass (Brachiaria platyphylla), common groundsel (Senecio vulgaris), common chickweed (Stellaria media), Virginia (V.) dayflower (Commelina virginica), tropical (T.) spiderwort (Commelina benghalensis), annual bluegrass (Poa annua), naked crabgrass (Digitaria nuda), itchgrass (Rottboellia cochinchinensis), quackgrass (Elytrigia repens), Canada horseweed (Conyza canadensis), field bindweed (Convolvulus arvensis), spanishneedles (Bidens bipinnata), common mallow (Malva sylvestris) and Russian thistle (Salsola kali) were planted and treated preemergence with test chemicals formulated in a non-phytotoxic solvent mixture which included a surfactant. At the same time, plants selected from these weed species were treated with postemergence applications of some of the test chemicals formulated in the same manner. Plants ranged in height from 2 to 18 cm (1- to 4-leaf stage) for postemergence treatments.
(§2) Treated plants and controls were maintained in a greenhouse for 14 to 21 days, after which time all species were compared to controls and visually evaluated. Plant response ratings, summarized in Table E, are based on a scale of 0 to 100 where 0 is no effect and 100 is complete control. A dash (-) response means no test result.

[2] = tested on: barnyardgrass (Echinochloa crus-galli)
Source text: as §1, §2

[3] = tested on: annual bluegrass (Poa annua); conditions: scale 0 to 100
Source text: as §1, §2

[4] = tested on: common purslane (Portulaca oleracea); conditions: scale 0 to 100
Source text: as §1, §2

[5] = tested on: pitted morningglory (Ipomoea lacunosa); conditions: scale 0 to 100
Source text: as §1, §2

[6] = tested on: Italian ryegrass (Lolium multiflorum); conditions: scale 0 to 100
Source text: as §1, §2

[7] = tested on: dallisgrass (Paspalum dilatatum); conditions: scale 0 to 100
Source text: as §1, §2

[8] = tested on: johnsongrass (Sorghum halepense); conditions: scale 0 to 100
Source text: as §1, §2

[9] = tested on: green foxtail (Setaria viridis); conditions: scale 0 to 100
Source text: as §1, §2

[10] = tested on: purple nutsedge (Cyperus rotundus); conditions: scale 0 to 100
Source text: as §1, §2

[11] = tested on: black mustard (Brassica nigra); conditions: scale 0 to 100
Source text: as §1, §2

[12] = tested on: broadleaf signalgrass (Brachiaria platyphylla); conditions: scale 0 to 100
Source text: as §1, §2

[13] = tested on: common mallow (Malva sylvestris); conditions: scale 0 to 100
Source text: as §1, §2

[14] = tested on: guineagrass (Panicum maximum); conditions: scale 0 to 100
Source text: as §1, §2

[15] = tested on: itchgrass (Rottboellia cochinchinensis); conditions: scale 0 to 100
Source text: as §1, §2

[16] = tested on: bermudagrass (Cynodon dactylon); conditions: scale 0 to 100
Source text: as §1, §2

[17] = tested on: southern (S.) sandbur (Cenchrus echinatus); conditions: scale 0 to 100
Source text: as §1, §2

Structure (SMILES): CCc1cc(-c2ccc(C(F)(F)F)cc2)nn1-c1c(OC(=O)OC(C)C)cnn(C)c1=O [Compound 12]
- Plant response rating, Surinam Grass ([1]; 4 g ai/ha, Postemergence): 35
- Plant response rating, Surinam Grass ([1]; 31 g ai/ha, Preemergence): 95
- Plant response rating, Surinam Grass ([1]; Postemergence, 8 g ai/ha): 90
- Plant response rating, Surinam Grass ([1]; Postemergence, 31 g ai/ha): 98
- Plant response rating, Surinam Grass ([1]; Preemergence, 4 g ai/ha): 0
- Plant response rating, Barnyardgrass ([2]; 4 g ai/ha, Postemergence, scale 0 to 100): 90
- Plant response rating, Barnyardgrass ([2]; 8 g ai/ha, Preemergence, scale 0 to 100): 70
- Plant response rating, Barnyardgrass ([2]; 31 g ai/ha, Preemergence, scale 0 to 100): 95
- Plant response rating, Barnyardgrass ([2]; Postemergence, 8 g ai/ha, scale 0 to 100): 100
- Plant response rating, Barnyardgrass ([2]; Postemergence, 31 g ai/ha, scale 0 to 100): 100
- Plant response rating, Barnyardgrass ([2]; Preemergence, 4 g ai/ha, scale 0 to 100, 0 no effect, 100 complete control): 20
- Plant response rating, Bluegrass ([3]; 4 g ai/ha, Postemergence): 0
- Plant response rating, Bluegrass ([3]; 8 g ai/ha, Preemergence): 0
- Plant response rating, Bluegrass ([3]; 31 g ai/ha, Preemergence): 0
- Plant response rating, Bluegrass ([3]; Postemergence, 8 g ai/ha): 0
- Plant response rating, Bluegrass ([3]; Postemergence, 31 g ai/ha): 0
- Plant response rating, Bluegrass ([3]; Preemergence, 4 g ai/ha): 0
- Plant response rating, Purslane ([4]; 4 g ai/ha, Postemergence): 0
- Plant response rating, Purslane ([4]; 31 g ai/ha, Preemergence): 0
- Plant response rating, Purslane ([4]; Postemergence, 8 g ai/ha): 0
- Plant response rating, Purslane ([4]; Postemergence, 31 g ai/ha): 0
- Plant response rating, Purslane ([4]; Preemergence, 4 g ai/ha): 0
- Plant response rating, Morningglory ([5]; 4 g ai/ha, Postemergence): 0
- Plant response rating, Morningglory ([5]; 31 g ai/ha, Preemergence): 0
- Plant response rating, Morningglory ([5]; Postemergence, 8 g ai/ha): 0
- Plant response rating, Morningglory ([5]; Postemergence, 31 g ai/ha): 0
- Plant response rating, Morningglory ([5]; Preemergence, 4 g ai/ha): 0
- Plant response rating, Ryegrass, Italian ([6]; 4 g ai/ha, Postemergence): 75
- Plant response rating, Ryegrass, Italian ([6]; 31 g ai/ha, Preemergence): 98
- Plant response rating, Ryegrass, Italian ([6]; Postemergence, 8 g ai/ha): 100
- Plant response rating, Ryegrass, Italian ([6]; Postemergence, 31 g ai/ha): 100
- Plant response rating, Ryegrass, Italian ([6]; Preemergence, 4 g ai/ha): 40
- Plant response rating, Dallisgrass ([7]; 4 g ai/ha, Postemergence): 65
- Plant response rating, Dallisgrass ([7]; 8 g ai/ha, Preemergence): 40
- Plant response rating, Dallisgrass ([7]; 31 g ai/ha, Preemergence): 100
- Plant response rating, Dallisgrass ([7]; Postemergence, 8 g ai/ha): 75
- Plant response rating, Dallisgrass ([7]; Postemergence, 31 g ai/ha): 85
- Plant response rating, Dallisgrass ([7]; Preemergence, 4 g ai/ha): 0
- Plant response rating, Johnsongrass ([8]; 4 g ai/ha, Postemergence): 95
- Plant response rating, Johnsongrass ([8]; 31 g ai/ha, Preemergence): 95
- Plant response rating, Johnsongrass ([8]; Postemergence, 8 g ai/ha): 95
- Plant response rating, Johnsongrass ([8]; Postemergence, 31 g ai/ha): 95
- Plant response rating, Johnsongrass ([8]; Preemergence, 4 g ai/ha): 75
- Plant response rating, Foxtail, Green ([9]; 4 g ai/ha, Postemergence): 30
- Plant response rating, Foxtail, Green ([9]; 8 g ai/ha, Preemergence): 60
- Plant response rating, Foxtail, Green ([9]; 31 g ai/ha, Preemergence): 100
- Plant response rating, Foxtail, Green ([9]; Postemergence, 8 g ai/ha): 90
- Plant response rating, Foxtail, Green ([9]; Postemergence, 31 g ai/ha): 100
- Plant response rating, Foxtail, Green ([9]; Preemergence, 4 g ai/ha): 0
- Plant response rating, Nutsedge, Purple ([10]; 4 g ai/ha, Postemergence): 0
- Plant response rating, Nutsedge, Purple ([10]; 31 g ai/ha, Preemergence): 0
- Plant response rating, Nutsedge, Purple ([10]; Postemergence, 8 g ai/ha): 0
- Plant response rating, Nutsedge, Purple ([10]; Postemergence, 31 g ai/ha): 0
- Plant response rating, Mustard, Black ([11]; 4 g ai/ha, Postemergence): 0
- Plant response rating, Mustard, Black ([11]; 8 g ai/ha, Preemergence): 0
- Plant response rating, Mustard, Black ([11]; 31 g ai/ha, Preemergence): 0
- Plant response rating, Mustard, Black ([11]; Postemergence, 8 g ai/ha): 0
- Plant response rating, Mustard, Black ([11]; Postemergence, 31 g ai/ha): 0
- Plant response rating, Mustard, Black ([11]; Preemergence, 4 g ai/ha): 0
- Plant response rating, Signalgrass ([12]; 4 g ai/ha, Postemergence): 65
- Plant response rating, Signalgrass ([12]; 31 g ai/ha, Preemergence): 95
- Plant response rating, Signalgrass ([12]; Postemergence, 8 g ai/ha): 80
- Plant response rating, Signalgrass ([12]; Postemergence, 31 g ai/ha): 100
- Plant response rating, Signalgrass ([12]; Preemergence, 4 g ai/ha): 0
- Plant response rating, Mallow ([13]; 4 g ai/ha, Postemergence): 0
- Plant response rating, Mallow ([13]; 31 g ai/ha, Preemergence): 0
- Plant response rating, Mallow ([13]; Postemergence, 8 g ai/ha): 0
- Plant response rating, Mallow ([13]; Postemergence, 31 g ai/ha): 0
- Plant response rating, Mallow ([13]; Preemergence, 4 g ai/ha): 0
- Plant response rating, Guineagrass ([14]; 4 g ai/ha, Postemergence): 95
- Plant response rating, Guineagrass ([14]; 31 g ai/ha, Preemergence): 100
- Plant response rating, Guineagrass ([14]; Postemergence, 8 g ai/ha): 95
- Plant response rating, Guineagrass ([14]; Postemergence, 31 g ai/ha): 95
- Plant response rating, Guineagrass ([14]; Preemergence, 4 g ai/ha): 0
- Plant response rating, Itchgrass ([15]; 4 g ai/ha, Postemergence): 0
- Plant response rating, Itchgrass ([15]; 31 g ai/ha, Preemergence): 80
- Plant response rating, Itchgrass ([15]; Postemergence, 8 g ai/ha): 50
- Plant response rating, Itchgrass ([15]; Postemergence, 31 g ai/ha): 95
- Plant response rating, Itchgrass ([15]; Preemergence, 4 g ai/ha): 20
- Plant response rating, Bermudagrass ([16]; 4 g ai/ha, Postemergence): 15
- Plant response rating, Bermudagrass ([16]; 8 g ai/ha, Preemergence): 75
- Plant response rating, Bermudagrass ([16]; 31 g ai/ha, Preemergence): 95
- Plant response rating, Bermudagrass ([16]; Postemergence, 8 g ai/ha): 70
- Plant response rating, Bermudagrass ([16]; Postemergence, 31 g ai/ha): 95
- Plant response rating, Bermudagrass ([16]; Preemergence, 4 g ai/ha): 35
- Plant response rating, Sandbur, S. ([17]; 4 g ai/ha, Postemergence): 90
- Plant response rating, Sandbur, S. ([17]; 31 g ai/ha, Preemergence): 95
- Plant response rating, Sandbur, S. ([17]; Postemergence, 8 g ai/ha): 98
- Plant response rating, Sandbur, S. ([17]; Postemergence, 31 g ai/ha): 100
- Plant response rating, Sandbur, S. ([17]; Preemergence, 4 g ai/ha): 0
